pIC50: −log10 of the molar value.
Molecular target: T1, IGF-1R (Homo sapiens, UniProt P08069)
T1 construct: expressed in transfected cells; host or cells: Hek293 (Hek293-IGF1R)
Assay: Cellular IGF-1R assay: capture ELISA (MSD) of receptor phosphorylation in Hek293 cells
Type: cell-based
Conditions: Hek293-IGF1R cells, 1 h pre-incubation, 10 min IGF stimulation, pIGF1R capture ELISA
Method in brief: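 IC50 from 4-parameter fit of IGF1R phosphorylation, normalised to IGF-stimulated and unstimulated controls, measured by MSD capture ELISA on lysates. Hek293-IGF1R cells in starvation medium got compound 1 h (top 10 μM, 3-fold steps, 0.1% DMSO) before a 10 min pulse of 1.0 ng/μL IGF.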

T1 sequence (P08069 31-1367): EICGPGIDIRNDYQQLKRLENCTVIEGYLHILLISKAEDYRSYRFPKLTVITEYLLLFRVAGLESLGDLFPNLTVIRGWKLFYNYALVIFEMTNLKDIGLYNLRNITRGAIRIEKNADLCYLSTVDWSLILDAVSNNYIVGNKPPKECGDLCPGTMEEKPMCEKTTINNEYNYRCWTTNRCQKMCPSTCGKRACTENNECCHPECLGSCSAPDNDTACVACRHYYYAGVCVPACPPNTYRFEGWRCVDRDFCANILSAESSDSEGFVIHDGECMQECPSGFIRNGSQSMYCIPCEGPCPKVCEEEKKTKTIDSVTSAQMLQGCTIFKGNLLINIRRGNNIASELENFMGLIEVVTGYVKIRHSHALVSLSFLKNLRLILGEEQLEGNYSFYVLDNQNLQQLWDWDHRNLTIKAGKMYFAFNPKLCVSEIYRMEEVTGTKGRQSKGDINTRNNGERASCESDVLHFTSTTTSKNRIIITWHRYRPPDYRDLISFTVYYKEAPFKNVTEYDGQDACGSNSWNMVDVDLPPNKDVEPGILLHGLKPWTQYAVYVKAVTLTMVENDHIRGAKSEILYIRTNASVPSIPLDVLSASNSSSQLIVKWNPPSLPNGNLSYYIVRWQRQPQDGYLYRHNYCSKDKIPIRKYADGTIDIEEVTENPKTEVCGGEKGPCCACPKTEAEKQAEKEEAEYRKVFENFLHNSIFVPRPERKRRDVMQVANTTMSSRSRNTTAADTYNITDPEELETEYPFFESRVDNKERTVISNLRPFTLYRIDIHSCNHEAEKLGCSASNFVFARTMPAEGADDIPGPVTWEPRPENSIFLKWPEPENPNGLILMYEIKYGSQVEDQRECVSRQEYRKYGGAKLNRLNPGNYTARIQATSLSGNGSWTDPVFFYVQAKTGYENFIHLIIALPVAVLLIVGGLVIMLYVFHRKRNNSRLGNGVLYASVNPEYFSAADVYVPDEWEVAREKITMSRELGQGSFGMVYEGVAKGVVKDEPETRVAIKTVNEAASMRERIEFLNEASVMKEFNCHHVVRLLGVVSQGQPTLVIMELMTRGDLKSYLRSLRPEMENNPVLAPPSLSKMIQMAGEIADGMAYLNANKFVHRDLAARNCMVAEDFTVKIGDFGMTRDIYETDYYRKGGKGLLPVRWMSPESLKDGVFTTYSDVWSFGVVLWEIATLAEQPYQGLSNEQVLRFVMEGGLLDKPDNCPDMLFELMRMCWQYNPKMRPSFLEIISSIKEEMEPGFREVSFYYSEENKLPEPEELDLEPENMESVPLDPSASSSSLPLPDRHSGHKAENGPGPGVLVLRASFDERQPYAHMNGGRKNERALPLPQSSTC

SMILES | pIC50
CC1(C(N)=O)CCCN1CC1CC(n2cc(-c3cccc(OCC4CCCCO4)c3)c3c(N)ncnc32)C1 [Example 93, (2S)-1-(((1s,3R)-3-(4-amino-5-(3-((tetrahydro-2H-pyran-2-yl)methoxy)phenyl)-7H-pyrrolo[2,3-d]pyrimidin-7-yl)cyclobutyl)methyl)-2-methylpyrrolidine-2-carboxamide] | 7.59
Nc1ncnc2c1c(-c1cccc(OCC34CCC(CC3)O4)c1)cn2[C@H]1C[C@@]2(COC(=O)O2)C1 [Example 197, (E)-2-{4-Amino-5-[3-(7-oxa-bicyclo[2.2.1]hept-1-ylmethoxy)-phenyl]-pyrrolo[2,3d]pyrimidin-7-yl}-5,7-dioxa-spiro[3.4]octan-6-one] | 7.00
Nc1ncnc2c1c(-c1cccc(OCC3CCCO3)c1)cn2[C@H]1C[C@@H](CN2CCS(=O)(=O)CC2)C1 (relative stereo) [Example 88, 7-[cis-3-(1,1-Dioxothiomorpholin-4-ylmethyl)-cyclobutyl]-5-[3-(tetrahydro-furan-2-ylmethoxy)-phenyl]-7H-pyrrolo[2,3-d]pyrimidin-4-ylamine] | 6.63
CC1(C)CCC(COc2cccc(-c3cn(C4CC(CN5CCS(=O)(=O)CC5)C4)c4ncnc(N)c34)c2)O1 (stereo not shown) [Example 14, 5-[3-(5,5-dimethyl-tetrahydro-furan-2-ylmethoxy)phenyl]-7-[3-(1,1-dioxothiomorpholin-4-ylmethyl)-cyclobutyl]-7H-pyrrolo[2,3-d]pyrimidin-4-ylamine] | 7.77
CC1(C)CCC(COc2cccc(-c3cn([C@H]4C[C@@H](CN5CCC(F)(F)CC5)C4)c4ncnc(N)c34)c2)O1 (single isomer, unassigned) [Example 54] | 6.92 to 7.35
CN1CCN([C@H]2CC[C@@H](n3cc(-c4cccc(OC[C@H]5CCC(C)(C)O5)c4)c4c(N)ncnc43)CC2)CC1 [Example 121, 5-(3-(((R)-5,5-dimethyltetrahydrofuran-2-yl)methoxy)phenyl)-7-((1S,4S)-4-(4-methylpiperazin-1-yl)cyclohexyl)-7H-pyrrolo[2,3-d]pyrimidin-4-amine] | 6.83
CC1CCC(COc2cccc(-c3cn(C4CC(CN5CCC5)C4)c4ncnc(N)c34)c2)O1 (single isomer, unassigned) [Example 6, cis-(RR and SS)-7-(3-azetidin-1-ylmethyl-cyclobutyl)-5-[3-(5-methyl-tetrahydro-furan-2-ylmethoxy)-phenyl]-7H-pyrrolo[2,3-d]pyrimidin-4-ylamine] | 7.52
COC(=O)NC[C@]1(O)C[C@H](n2cc(-c3cccc(OCC45CCC(CC4)O5)c3)c3c(N)ncnc32)C1 [Example 218, (E)-(3-{4-Amino-5-[3-(7-oxa-bicyclo[2.2.1]hept-1-ylmethoxy)-phenyl]-pyrrolo[2,3-d]pyrimidin-7-yl}-1-hydroxy-cyclobutylmethyl)-carbamic acid methyl ester] | 6.39
Nc1ncnc2c1c(-c1cccc(OCC34CCC(CC3)O4)c1)cn2[C@H]1C[C@@H](O)C1 (relative stereo) [Example 221, cis-3-{4-amino-5-[3-(7-oxa-bicyclo[2.2.1]hept-1-ylmethoxy)-phenyl]-pyrrolo[2,3-d]pyrimidin-7-yl}cyclobutanol] | 6.39
NC(=O)[C@@H]1CCCN1C[C@]1(O)C[C@@H](n2cc(-c3cccc(OCC45CCC(CC4)O5)c3)c3c(N)ncnc32)C1 [Example 198, (S)-(Z)-1-(3-(4-Amino-5-[3-(7-oxa-bicyclo[2.2.1]hept-1-ylmethoxy)-phenyl]-pyrrolo[2,3-d]pyrimidin-7-yl}-1-hydroxy-cyclobutylmethyl)-pyrrolidine-2-carboxylic acid amide] | 7.48
CC1(C)CN(CC2CC(n3cc(-c4cccc(OCC5CCCCO5)c4)c4c(N)ncnc43)C2)[C@H](C(N)=O)CO1 (stereo partly drawn) [Example 98, (3S)-4-((3-(4-amino-5-(3-((tetrahydro-2H-pyran-2-yl)methoxy)phenyl)-7H-pyrrolo[2,3-d]pyrimidin-7-yl)cyclobutyl)methyl)-6,6-dimethylmorpholine-3-carboxamide] | 7.55
Nc1ncnc2c1c(-c1cccc(OCC34CCC(CC3)O4)c1)cn2C1CC(CN2CC3CC2C[S+]3[O-])C1 (single isomer, unassigned) [Example 229] | 6.20
NC(=O)[C@@H]1CCCN1C[C@H]1C[C@@H](n2cc(-c3cccc(OC[C@H]4CCCCO4)c3)c3c(N)ncnc32)C1 [Example 43, (S)-1-[3-(4-amino-5-{3-[(R)-1-(tetrahydro-pyran-2-yl)methoxy]-phenyl}-pyrrolo[2,3-d]pyrimidin-7-yl)-cyclobutylmethyl]-pyrrolidine-2-carboxylic acid amide] | 7.66 to 8.40
NC(=O)[C@H]1CCCN1C[C@H]1C[C@@H](n2cc(-c3cccc(OCC45CCC(CC4)O5)c3)c3c(N)ncnc32)C1 [Example 75, (R)-1-(cis-3-{4-amino-5-[3-(7-oxa-bicyclo[2.2.1]hept-1-ylmethoxy)-phenyl]-pyrrolo[2,3-d]pyrimidin-7-yl}-cyclobutylmethyl)-pyrrolidine-2-carboxylic acid amide] | 8.10
Nc1ncnc2c1c(-c1cccc(OCC34CCC(CC3)O4)c1)cn2C1CCC(CN2CCC(O)C2)CC1 [Example 126, (S)-1-(((1S,4S)-4-(5-(3-(7-oxabicyclo[2.2.1]heptan-1-ylmethoxy)phenyl)-4-amino-7H-pyrrolo[2,3-d]pyrimidin-7-yl)cyclohexyl)methyl)pyrrolidin-3-ol] | 7.30
CS(=O)(=O)N1CCN(C[C@H]2CC[C@@H](n3cc(-c4cccc(OCC56CCC(CC5)O6)c4)c4c(N)ncnc43)CC2)CC1 [Example 137, 5-(3-(7-oxabicyclo[2.2.1]heptan-1-ylmethoxy)phenyl)-7-((1S,4S)-4-((4-(methylsulfonyl)piperazin-1-yl)methyl)cyclohexyl)-7H-pyrrolo[2,3-d]pyrimidin-4-amine] | 6.79
N#Cc1ccnc(N[C@H]2CC[C@@H](n3cc(-c4cccc(OCC56CCC(CC5)O6)c4)c4c(N)ncnc43)CC2)c1 [Example 145, 2-((1S,4S)-4-(5-(3-(7-oxabicyclo[2.2.1]heptan-1-ylmethoxy)phenyl)-4-amino-7H-pyrrolo[2,3-d]pyrimidin-7-yl)cyclohexylamino)isonicotinonitrile] | 6.64
CN1CCN([C@H]2CC[C@@H](n3cc(-c4cccc(OCC56CCC(CC5)O6)c4)c4c(N)ncnc43)CC2)CC1=O [Example 143, 4-((1S,4S)-4-(5-(3-(7-oxabicyclo[2.2.1]heptan-1-ylmethoxy)phenyl)-4-amino-7H-pyrrolo[2,3-d]pyrimidin-7-yl)cyclohexyl)-1-methylpiperazin-2-one] | 6.27 to 6.50

Further molecules by rising pIC50, results first:

pIC50 | SMILES
6.39 | CC1(C)CN(C[C@H]2C[C@@H](n3cc(-c4cccc(OCC5CCCCO5)c4)c4c(N)ncnc43)C2)CCS1(=O)=O (stereo partly drawn) [Example 105, 7-[cis-3-(2,2-Dimethyl-1,1-dioxo-1λ6-thiomorpholin-4-ylmethyl)-cyclobutyl]-5-[3-(tetrahydro-pyran-2-ylmethoxy)-phenyl]-7H-pyrrolo[2,3-d]pyrimidin-4-ylamine]
6.48 | Nc1ncnc2c1c(-c1cccc(OCC3CCCCO3)c1)cn2[C@H]1C[C@@H](CN2CC[C@H](O)C2)C1 (stereo partly drawn) [Example 34, (S)-1-(cis-3-{4-amino-5-[3-(tetrahydro-pyran-2-ylmethoxy)-phenyl]-pyrrolo[2,3-d]pyrimidin-7-yl}-cyclobutylmethyl)-pyrrolidin-3-ol]
6.64 | NC[C@H]1CC[C@@H](n2cc(-c3cccc(OCC45CCC(CC4)O5)c3)c3c(N)ncnc32)CC1 [Example 134, 5-(3-(7-oxabicyclo[2.2.1]heptan-1-ylmethoxy)phenyl)-7-((1S,4S)-4-(aminomethyl)cyclohexyl)-7H-pyrrolo[2,3-d]pyrimidin-4-amine]
6.76 | Nc1ncnc2c1c(-c1cccc(OCC34CCC(CC3)O4)c1)cn2[C@H]1CC[C@@H](NC(=O)C2CC2)CC1 [Example 146, N-((1S,4S)-4-(5-(3-(7-oxabicyclo[2.2.1]heptan-1-ylmethoxy)phenyl)-4-amino-7H-pyrrolo[2,3-d]pyrimidin-7-yl)cyclohexyl)cyclopropanecarboxamide]
6.89 | Nc1nccn2c1c(-c1cccc(OCC34CCC(CC3)O4)c1)nc2[C@H]1C[C@@H](N2CCC(O)CC2)C1 [Example 187]
7.30 | CC1(C)CCC(COc2cccc(-c3cn([C@H]4C[C@@H](CN5CC[C@@H](O)C5)C4)c4ncnc(N)c34)c2)O1 (stereo partly drawn) [Example 58, (R)-1-(cis-3-{4-amino-5-[3-(5,5-dimethyl-tetrahydro-furan-2-ylmethoxy)-phenyl]-pyrrolo[2,3-d]pyrimidin-7-yl}cyclobutylmethyl)-pyrrolidin-3-ol]
7.31 | CN(C)CC1(O)CC(n2cc(-c3cccc(OCC45CCC(CC4)O5)c3)c3c(N)ncnc32)C1 (stereo not shown) [Example 235, 3-{4-Amino-5-[3-(7-oxa-bicyclo[2.2.1]hept-1-ylmethoxy)-phenyl]-pyrrolo[2,3-d]pyrimidin-7-yl}-1-dimethylaminomethyl-cyclobutanol]
7.44 | Nc1ncnc2c1c(-c1cccc(OCC34CCC(CC3)O4)c1)cn2[C@H]1CC[C@@H](CN2CCSCC2)CC1 [Example 112, 5-(3-(7-oxabicyclo[2.2.1]heptan-1-ylmethoxy)phenyl)-7-((1S,4S)-4-(thiomorpholinomethyl)cyclohexyl)-7H-pyrrolo[2,3-d]pyrimidin-4-amine]
8.15 | NC(=O)[C@H]1CCCN1C[C@H]1C[C@H](n2cc(-c3cccc(OCC45CCC(CC4)O5)c3)c3c(N)ncnc32)C1 [Example 79, (R)-1-(trans-3-{4-amino-5-[3-(7-oxa-bicyclo[2.2.1]hept-1-ylmethoxy)-phenyl]-pyrrolo[2,3-d]pyrimidin-7-yl}cyclobutylmethyl)-pyrrolidine-2-carboxylic acid amide]
8.22 | Nc1ncnc2c1c(-c1cccc(OCC34CCC(CC3)O4)c1)cn2[C@H]1C[C@@H](CN2C3CCC2CC(O)C3)C1 (stereo partly drawn) [Example 185, 8-(cis-3-{4-Amino-5-[3-(7-oxa-bicyclo[2.2.1]hept-1-ylmethoxy)-phenyl]-pyrrolo[2,3-d]pyrimidin-7-yl}-cyclobutylmethyl)-8-aza-bicyclo[3.2.1]octan-(3-exo)-ol]

— US20120165310A1, “ETHER DERIVATIVES OF BICYCLIC HETEROARYLS” (NOVARTIS AG, priority 2009, published 2012)
